Results taken from publication PMC8145986, “In Vitro Enzymatic and Kinetic Studies, and In Silico Drug-Receptor Interactions, and Drug-Like Profiling of the 5-Styrylbenzamide Derivatives as Potential Cholinesterase and β-Secretase Inhibitors with Antioxidant Properties” (Antioxidants, 2021).

Columns and labels:
[1] = molecular target: T1, BChE (Homo sapiens, UniProt P06276); assay: biochemical; conditions: mean ± SD of three independent experiments
T1 construct: purchased Cloud-Clone Corp. (via Biocom Africa (Pty) Ltd.)
Description: The melting point values of the test compounds were recorded on a Thermocouple digital melting point apparatus (Mettler Toledo LLC, Columbus, OH, USA). The infrared (IR) spectra were recorded using the thin-film method on a Bruker VERTEX 70 FT-IR Spectrometer (Bruker Optics, Billerica, MA, USA) equipped with an ATR (diamond attenuated total reflectance) accessory. Merck kieselgel 60 (0.063–0.200 mm) (Merck KGaA, Frankfurt, Germany) was used as a stationary phase for column chromatography. The ^1H-NMR and ^13C-NMR spectra of the prepared compounds were obtained as deuterated dimethyl sulfoxide ((CD3)2SO) solutions using Agilent 500 MHz NMR spectrometer (Agilent Technologies, Oxford, UK) operating at 500 MHz and 125 MHz for ^1H and ^13C, respectively. The chemical shifts are quoted relative to tetramethylsilane (TMS) used as an internal reference standard (δ = 0.00 ppm) or a residual protonated solvent. The high-resolution mass spectra were recorded at an ionization potential of 70 eV using Micromass Autospec-TOF (double focusing high resolution) instrument (Waters Corp., Milford, MA, USA). The synthesis and analytical data for 2-amino-5-iodobenzamide (1) have been reported in our previous study. Recombinant human AChE (BioLegend) and BChE (Cloud-Clone Corp.) were purchased via Biocom Africa (Pty) Ltd. (Centurion, Pretoria, South Africa).
AChE and BChE were used to determine cholinesterase activities spectrophotometrically using […] as substrates, respectively, following a modification of the Ellman’s method, as described in our previous study, and the reactions were performed in triplicate at 37 °C in a 96-well plate. […] A multi-channel pipette was used for the addition of reagents to the wells.
A total of 8.0 μL of the test compound and 2.0 μL of BChE (0.02 mg/mL) was added to each of the designated wells of the 96-well plate, and the mixtures were incubated at room temperature for 30 min. Tris buffer (70 μL) was added to each well containing the reaction mixture and incubation was continued for a further 10 min at this temperature, which was followed by the addition of 10 μL solution of 5,5′-dithiobis-(2-nitrobenzoic acid) (DTNB) (3 mM in Tris buffer, 50 mM, pH 7.7) and butyrylcholine iodide (5 mM in Tris buffer, 50 mM, pH 7.7) to each well to initiate the reaction. […] The IC50 and standard deviation values using the Graph Pad Prism.

[2] = molecular target: T2, β-secretase (Homo sapiens, UniProt P56817); assay: β-Secretase (BACE-1) inhibition assay; type: biochemical; conditions: mean ± SD of three independent experiments
T2 construct: purchased Thermo Fisher Scientific Corporation; host or cells: baculovirus-expressed
Description: The β-secretase inhibitory activities of the test compounds were assayed in triplicates in 96-well plates using a recombinant baculovirus-expressed β-secretase and a specific substrate (Rh-[…]-Quencher), according to the manufacturer’s (Thermo Fisher Scientific Corporation, Johannesburg, Gauteng, South Africa) instructions, as described in our previous study. […] To each well, 2.0 μL human recombinant β-secretase (1.0 U/mL) was added to start the reaction and the reaction mixture was incubated for 60 min at room temperature. […] The IC50 and standard deviation values of both the test compounds and reference standard were calculated using the Graph Pad Prism.

[3] = Nitric oxide radical scavenging assay (Griess reaction); conditions: NO radical scavenging
Description: Nitric oxide was generated from sodium nitroprusside and measured by Griess’ reaction following the literature method. The experiment was done in triplicate with ascorbic acid (vitamin C) used as a positive control for the assay. In total, 50 μL of each of the test compounds and the positive control at various concentrations (0.1, 0.5, 1.0, 5.0, and 10.0 μM in methanol) were added to each designated well of the 96 well plate. A total of 50 μL of sodium nitroprusside (10 mM) prepared in saline phosphate buffer (pH = 7.4) was then added to each well and the reaction mixture incubated at room temperature for 3 h. Afterward, 300 μL of the Griess reagent (a mixture of 0.2% N-(1-naphthyl)ethylenediamine dihydrochloride and 2% sulfanilamide in […]) was added to each well and absorbance was read at 546 nm using a Varioskan flash microplate spectrophotometer reader.

[4] = molecular target: T2, β-secretase; assay: Enzyme kinetic study on β-secretase (Lineweaver-Burk and Dixon plots); type: biochemical
Description: Compounds 2a and 3b were subjected to kinetic studies on β-secretase using substrate concentrations 150, 300, and 450 nM at increasing inhibitor concentrations (0, 4, 8, and 16 μM) following a method reported before. The fluorescence readings were recorded after every 1 s for 10 s at excitation and emission values of 545 nm and 590 nm, respectively. The Lineweaver–Burk plots (plots of the inverse of velocity against the inverse of the substrate concentration) were constructed to assess changes in enzymatic parameters. The Dixon plots were also prepared to determine the inhibitor constants, Ki.

[5] = in vitro; conditions: human, A549 cells (adeno-carcinomic human epithelial cells)
Description: The cytotoxicity activity of the compounds was evaluated using the 3-(4,5-dimethylthiazol-2-yl)-2,5-diphenyltetrazolium bromide (MTT) assay following a modification of a method by Mosmann. Normal monkey kidney cells (Vero cells) and adeno-carcinomic human epithelial cells (A549 cells) were maintained in Dulbecco’s modified Eagle’s medium (DMEM, Gibco) supplemented with 10% fetal bovine serum (FBS) and 1% penicillin/streptomycin in culture flasks and incubated at 37 °C in 5% CO2. […] Cells were seeded at 1 × 10^5 cells/well and incubated overnight to allow cell attachment. After 24 h, treatments were administered with different concentrations (0, 2.5, 5, 10, 25, 50, and 100 μM) of the compounds and doxorubicin (positive control). After 24 h of incubation, 20 μL of the MTT solution (5 mg/mL) was added in all the wells, which was followed by 4 h of incubation.

[6] = test system: Vero cells; assay: LPS-induced ROS production in Vero cells (H2DCF-DA); type: cell-based, monkey; conditions: 10 μM compound, LPS 1 μg/mL, 24 h (Figure 9a)
Description: (§1) Mitochondrial ROS levels in Vero and A549 cell lines was measured using the 2′,7′-dichlorofluorescin diacetate (H2DCF-DA) (Sigma-Aldrich, St. Louis, MO, USA, Merck, Darmstadt, Germany), fluorescent probe. Cells (1 × 10^5) were seeded in 96 well plates and incubated overnight at 37 °C in 5% CO2. A minimum non-toxic concentration (10 μM) of compounds (2a and 3b) was added separately as treatment and further incubated for an hour, after which LPS (1 μg/mL) was added to induce the production of ROS. After 24 h of incubation, the media was aspirated, cells were rinsed with PBS, and followed by the addition of H2DCF-DA (10 μM) for 30 min in the dark. The absorbance of the fluorescence was measured using a microplate reader (VarioSkan Flash, Thermo Fisher Scientific, Finland) at 485 and 535 nm values of excitation and emission, respectively. Data was processed and analysed using ANOVA, which was followed by Duncan’s multiple comparison test.

[7] = test system: A549 cells; assay: LPS-induced ROS production in A549 cells (H2DCF-DA); type: cell-based, human; conditions: 10 μM compound, LPS 1 μg/mL, 24 h (Figure 9b)
Description: as §1

T2 sequence (P56817 46-501): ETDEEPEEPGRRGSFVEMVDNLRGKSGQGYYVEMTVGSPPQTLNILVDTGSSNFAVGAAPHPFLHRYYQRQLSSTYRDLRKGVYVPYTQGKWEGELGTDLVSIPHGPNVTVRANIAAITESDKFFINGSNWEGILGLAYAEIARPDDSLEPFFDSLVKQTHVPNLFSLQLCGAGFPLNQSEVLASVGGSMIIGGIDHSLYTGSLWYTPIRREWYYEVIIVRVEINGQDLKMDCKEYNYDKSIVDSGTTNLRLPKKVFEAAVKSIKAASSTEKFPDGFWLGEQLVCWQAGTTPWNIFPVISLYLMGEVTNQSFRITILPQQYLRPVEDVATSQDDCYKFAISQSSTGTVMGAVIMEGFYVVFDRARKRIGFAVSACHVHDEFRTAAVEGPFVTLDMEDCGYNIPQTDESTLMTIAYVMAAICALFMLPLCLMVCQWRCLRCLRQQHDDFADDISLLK
T1 sequence (P06276 29-602): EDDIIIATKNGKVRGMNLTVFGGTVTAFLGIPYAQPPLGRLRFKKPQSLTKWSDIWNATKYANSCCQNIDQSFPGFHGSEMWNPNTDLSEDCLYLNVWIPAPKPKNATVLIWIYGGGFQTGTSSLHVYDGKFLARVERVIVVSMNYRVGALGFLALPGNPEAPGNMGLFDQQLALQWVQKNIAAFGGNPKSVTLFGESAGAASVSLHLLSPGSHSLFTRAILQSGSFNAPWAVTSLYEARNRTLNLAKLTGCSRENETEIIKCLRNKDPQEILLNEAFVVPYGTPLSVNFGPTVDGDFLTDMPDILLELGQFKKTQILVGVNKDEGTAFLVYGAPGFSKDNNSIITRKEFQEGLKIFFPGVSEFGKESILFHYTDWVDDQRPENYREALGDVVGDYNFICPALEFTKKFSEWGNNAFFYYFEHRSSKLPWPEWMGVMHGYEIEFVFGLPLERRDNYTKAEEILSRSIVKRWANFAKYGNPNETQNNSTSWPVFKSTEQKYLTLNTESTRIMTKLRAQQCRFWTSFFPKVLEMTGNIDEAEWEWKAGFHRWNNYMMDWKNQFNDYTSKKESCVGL

NC(=O)c1cc(/C=C/c2ccccc2)ccc1N [Compound 2a, (E)-2-Amino-5-styrylbenzamide]
IC50 [1]: 4.7 ± 0.32 µM | IC50 [2]: 15.8 ± 0.26 µM | IC50 [3]: 10.3 ± 0.12 µM | mode of inhibition β-secretase [4]: mixed mode | Ki ([4]; read-out: Ki (Dixon plot) β-secretase): 3.44 ± 0.3 µM | IC50 at 24 h [5]: 35.4 ± 0.13 µM | suppression of LPS-induced ROS [6]: about 60% | ROS reduction [7]: about 65%
